From US12157741B2, “Macrocyclic inhibitors of DYRK1A” (DANA-FARBER CANCER INSTITUTE, INC., priority 2018, dated 2024) come the findings set out here.

Assay type in all cases: biochemical
The target of one experiment is T1, DYRK1A (Homo sapiens, UniProt Q13627).
T1 construct: purchased Thermo Fisher Scientific PR7189B
In words: DYRK1A enzyme assay (Promega ADP-Glo Kinase assay). Conditions: for IC50: ADP-Glo, 3 μM ATP, read-out: Enzyme activity against DYRK1A; for potency against DYRK1A (statement on Table 5): statement in words. The procedure:
All DYRK1A kinase inhibition assays were conducted by using Promega™ ADP-Glo™ Kinase assay systems (Cat No. V9102).
For DYRK1A enzyme assay, each inhibitor mixed with 0.2 μg/μL of substrate (MVBP, SignalChem, M42-51N), 3 μM ATP (Promega™, Cat No. V9102), 3 ng of DYRK1A enzyme (Thermo Fisher Scientific, PR7189B) in 384-well plate. All samples were diluted with kinase reaction buffer (40 mM Tris HCl, 10 mM MgCL2, and 0.1 μg/μL BSA (bovine serum albumin), 0.05 mM DTT). After 1 h reaction at 25° C., ADP-Glo™ (Proeg™, V9102) reagent was added and incubated at rt for 40 min. Finally, kinase detection reagent (Promega™, Cat No. V6930) was added and reacted at 25° C. for 10 min. The luminescence signals were detected by using Synergy™ Neo2 microplate reader (BioTek®). Compound inhibition curve was fitted using GraphPad Prism 8.0 software.

The target in another experiment is T2, CLK1 (Homo sapiens, UniProt P49759).
T2 construct: purchased Signalchem C57-11G
In words: CLK1 enzyme assay (Promega ADP-Glo Kinase assay). Conditions: 10 μM ATP, read-out: Enzyme activity against CLK1. Here is the method:
All CLK1 kinase inhibition assays were conducted by using Promega™ ADP-Glo™ Kinase assay systems (Cat No. V9102).
For DYRKIA enzyme assay, each inhibitor mixed with 0.1 μg/μL of substrate (MBP, SignalChem, M42-51N), 10 μM ATP (Promega™, Cat No. V9102), 1.6 ng of CLK1 enzyme (Signalchem, C57-11G) in 384-well plate. All samples were diluted with kinase reaction buffer (40 mM Tris HCl, 10 mM MgCL2, and 0.1 μg/μL BSA, 0.05 mM DTT). After 1 h reaction at 25° C., ADP-Glo™ (Promega™, Cat No. V9102) reagent was added and incubated at rt for 40 min. Finally, kinase detection reagent (Promega™, Cat No. V6930) was added and reacted at 25° C. for 10 min. The luminescence signals were detected by using Synergy™ Neo2 microplate reader (BioTek®). Compound inhibition curve was fitted using GraphPad Prism 8.0 software.

Another experiment deals with T3, LRRK2 (G2019S) (Homo sapiens, UniProt Q5S007, G2019S).
T3 construct: purchased SignalChem L10-12GG
In words: LRRK2(G2019S) enzyme assay (Promega ADP-Glo Kinase assay). Conditions: 25 μM ATP, read-out: Enzyme activity against LRRK2 (G2019S). Here is the method: All LRRK2 kinase inhibition assays were conducted by using Promega™ ADP-Glo™ Kinase assay systems (Cat No. V4475).
For LRRK G2019S, each compound mixed with 0.2 μg/μL of substrate, 25 μM ATP, 16 ng of LRRK2 G2019S enzyme (SignalChem, L10-12GG). All samples were diluted with kinase reaction buffer (40 mmol/L TrisHCl, 10 mmol/L MgCl2, and 0.1 μg/μL BSA, 0.05 mM DTT). After a 2 h reaction at 25° C., ADP-Glo™ (Promega™, V9102) reagent was added and incubated at rt for 40 min. Finally, kinase detection reagent (Promega™, Cat No. V6930) was added and reacted at 25° C. for 10 min. The luminescence signals were detected by using Synergy™ Neo2 microplate reader (BioTek®). Compound inhibition curve was fitted using GraphPad Prism 8.0 software.

Another experiment addresses T4, DYRK1B (Homo sapiens, UniProt Q9Y463).
T4 construct: purchased Invitrogen (assay run by the vendor)
In words: Invitrogen Zlyte assay, DYRK1B.

T3 sequence (Q5S007 whole entry G2019S): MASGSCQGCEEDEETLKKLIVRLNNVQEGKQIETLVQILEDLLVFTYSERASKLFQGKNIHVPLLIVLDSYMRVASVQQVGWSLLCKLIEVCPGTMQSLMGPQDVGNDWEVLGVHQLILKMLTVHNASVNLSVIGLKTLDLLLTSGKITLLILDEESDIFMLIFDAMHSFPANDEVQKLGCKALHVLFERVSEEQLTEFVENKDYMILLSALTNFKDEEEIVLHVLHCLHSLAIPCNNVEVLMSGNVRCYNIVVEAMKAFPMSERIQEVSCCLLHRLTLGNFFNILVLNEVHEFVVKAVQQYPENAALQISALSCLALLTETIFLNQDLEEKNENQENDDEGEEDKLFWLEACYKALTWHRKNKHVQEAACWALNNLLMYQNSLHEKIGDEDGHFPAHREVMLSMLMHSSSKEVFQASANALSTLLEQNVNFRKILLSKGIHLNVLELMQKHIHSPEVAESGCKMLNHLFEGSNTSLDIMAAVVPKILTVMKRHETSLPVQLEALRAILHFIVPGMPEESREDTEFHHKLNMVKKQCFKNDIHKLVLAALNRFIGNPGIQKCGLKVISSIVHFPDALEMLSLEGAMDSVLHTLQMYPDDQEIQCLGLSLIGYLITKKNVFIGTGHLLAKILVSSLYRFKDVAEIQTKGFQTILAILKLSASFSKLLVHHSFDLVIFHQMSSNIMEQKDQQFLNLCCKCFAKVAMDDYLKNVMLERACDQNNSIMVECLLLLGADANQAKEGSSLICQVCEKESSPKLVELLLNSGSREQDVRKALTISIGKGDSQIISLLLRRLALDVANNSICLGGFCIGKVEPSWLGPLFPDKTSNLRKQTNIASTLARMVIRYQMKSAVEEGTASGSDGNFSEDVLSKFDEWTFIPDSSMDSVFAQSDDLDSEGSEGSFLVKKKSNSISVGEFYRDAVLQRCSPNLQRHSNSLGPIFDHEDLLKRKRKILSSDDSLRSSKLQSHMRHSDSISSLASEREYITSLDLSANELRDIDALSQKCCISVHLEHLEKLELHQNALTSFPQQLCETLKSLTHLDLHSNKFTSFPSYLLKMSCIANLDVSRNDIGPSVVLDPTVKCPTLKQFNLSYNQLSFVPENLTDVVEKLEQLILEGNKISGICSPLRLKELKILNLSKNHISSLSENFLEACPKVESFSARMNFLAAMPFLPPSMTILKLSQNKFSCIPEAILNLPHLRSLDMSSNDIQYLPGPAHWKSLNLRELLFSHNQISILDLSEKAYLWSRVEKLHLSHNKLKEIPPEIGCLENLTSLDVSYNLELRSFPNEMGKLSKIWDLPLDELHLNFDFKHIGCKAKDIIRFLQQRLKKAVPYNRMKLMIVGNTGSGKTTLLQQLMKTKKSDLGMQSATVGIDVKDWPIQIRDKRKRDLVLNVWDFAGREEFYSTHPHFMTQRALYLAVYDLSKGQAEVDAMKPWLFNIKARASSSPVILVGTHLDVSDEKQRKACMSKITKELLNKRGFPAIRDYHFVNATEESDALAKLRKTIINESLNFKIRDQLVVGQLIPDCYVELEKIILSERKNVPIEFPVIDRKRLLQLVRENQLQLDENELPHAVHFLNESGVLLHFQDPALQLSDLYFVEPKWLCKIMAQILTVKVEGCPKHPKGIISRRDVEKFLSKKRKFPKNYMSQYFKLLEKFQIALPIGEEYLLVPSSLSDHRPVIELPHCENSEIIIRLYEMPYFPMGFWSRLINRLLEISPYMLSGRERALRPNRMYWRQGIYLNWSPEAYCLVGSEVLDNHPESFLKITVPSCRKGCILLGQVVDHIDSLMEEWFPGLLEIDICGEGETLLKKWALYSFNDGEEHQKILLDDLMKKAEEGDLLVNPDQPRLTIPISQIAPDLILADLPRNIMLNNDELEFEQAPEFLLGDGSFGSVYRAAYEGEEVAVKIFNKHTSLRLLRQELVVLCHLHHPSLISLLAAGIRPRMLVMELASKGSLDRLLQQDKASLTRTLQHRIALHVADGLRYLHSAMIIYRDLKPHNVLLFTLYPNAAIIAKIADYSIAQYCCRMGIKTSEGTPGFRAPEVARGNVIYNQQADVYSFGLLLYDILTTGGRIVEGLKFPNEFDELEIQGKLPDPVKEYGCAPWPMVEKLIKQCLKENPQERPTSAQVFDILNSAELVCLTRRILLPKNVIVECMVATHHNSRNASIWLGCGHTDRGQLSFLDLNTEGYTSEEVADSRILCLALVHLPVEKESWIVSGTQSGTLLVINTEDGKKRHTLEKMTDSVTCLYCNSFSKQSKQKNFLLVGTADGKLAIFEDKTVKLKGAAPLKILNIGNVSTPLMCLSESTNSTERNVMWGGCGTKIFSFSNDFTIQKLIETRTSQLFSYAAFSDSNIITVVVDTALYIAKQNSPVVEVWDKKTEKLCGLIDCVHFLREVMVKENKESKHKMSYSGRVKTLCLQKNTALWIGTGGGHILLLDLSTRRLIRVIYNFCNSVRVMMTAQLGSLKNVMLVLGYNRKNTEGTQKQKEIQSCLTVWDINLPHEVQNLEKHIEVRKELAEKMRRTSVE
T2 sequence (P49759 whole entry): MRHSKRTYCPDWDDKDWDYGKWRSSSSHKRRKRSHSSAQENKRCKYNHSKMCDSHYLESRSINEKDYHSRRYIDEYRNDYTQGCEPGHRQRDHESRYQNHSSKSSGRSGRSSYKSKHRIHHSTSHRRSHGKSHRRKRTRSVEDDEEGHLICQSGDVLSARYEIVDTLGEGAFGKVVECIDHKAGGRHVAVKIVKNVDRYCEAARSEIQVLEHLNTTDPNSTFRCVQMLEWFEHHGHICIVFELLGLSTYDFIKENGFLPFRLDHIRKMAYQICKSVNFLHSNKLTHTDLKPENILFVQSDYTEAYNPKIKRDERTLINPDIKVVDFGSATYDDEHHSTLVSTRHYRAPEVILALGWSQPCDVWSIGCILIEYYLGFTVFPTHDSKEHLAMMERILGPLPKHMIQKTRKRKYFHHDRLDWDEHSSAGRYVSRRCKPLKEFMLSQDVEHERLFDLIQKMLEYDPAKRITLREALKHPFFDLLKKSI
T4 sequence (Q9Y463 whole entry): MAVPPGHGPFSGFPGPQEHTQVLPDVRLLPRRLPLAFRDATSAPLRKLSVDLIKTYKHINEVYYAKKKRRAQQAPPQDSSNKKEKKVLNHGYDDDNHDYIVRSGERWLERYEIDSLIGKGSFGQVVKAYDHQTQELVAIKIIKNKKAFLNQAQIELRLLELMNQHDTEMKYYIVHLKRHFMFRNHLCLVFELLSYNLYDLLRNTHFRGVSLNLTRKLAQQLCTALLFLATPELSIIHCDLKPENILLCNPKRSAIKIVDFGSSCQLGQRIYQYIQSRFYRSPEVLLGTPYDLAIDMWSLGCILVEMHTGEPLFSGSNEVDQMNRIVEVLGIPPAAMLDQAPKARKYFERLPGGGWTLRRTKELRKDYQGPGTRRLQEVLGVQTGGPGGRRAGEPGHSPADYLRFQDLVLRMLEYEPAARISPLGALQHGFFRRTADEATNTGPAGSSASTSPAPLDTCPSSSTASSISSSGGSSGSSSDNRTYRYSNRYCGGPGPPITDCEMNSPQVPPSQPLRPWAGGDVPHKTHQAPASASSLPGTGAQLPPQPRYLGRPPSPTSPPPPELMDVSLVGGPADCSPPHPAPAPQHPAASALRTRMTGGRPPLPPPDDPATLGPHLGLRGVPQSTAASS

Regarding `CN1Cc2nn(C)cc2-c2cnc3[nH]cc(c3c2)-c2cn(nc2C(F)(F)F)CCCC1=O` [Compound 43, (Z)-31,5-dimethyl-13-(trifluoromethyl)-11H,21H,31H-5-aza-2(3,5)-pyrrolo[2,3-b]pyridina-1(4,1),3(4,3)-dipyrazolacyclononaphan-6-one], the IC50 at DYRK1A was less than 50 nM; at CLK1, less than 50 nM; at LRRK2 (G2019S), more than 100 nM. Further, the “potency against DYRK1A (statement on Table 5)” value (shortened to “potency against DYRK1A”) on DYRK1A is “most potent”.
As for `CN1CCCCn2cc(c(C(F)(F)F)n2)-c2c[nH]c3ncc(cc23)-c2cn(C)nc2C1=O` [Compound 75, (Z)-31,5-dimethyl-13-(trifluoromethyl)-11H,21H,31H-5-aza-2(3,5)-pyrrolo[2,3-b]pyridina-1(4,1),3(4,3)-dipyrazolacyclononaphan-4-one], the IC50 at DYRK1A, at CLK1 and on LRRK2 (G2019S) was more than 100 nM throughout.
In the case of `COCCn1nc2c(c1C#N)-c1cnc3[nH]cc(c3c1)-c1cn(nc1C(F)(F)F)CCC(=O)N(C)C2` [Compound 67, (Z)-31-(2-methoxyethyl)-5-methyl-6-oxo-13-(trifluoromethyl)-11H,21H,31H-5-aza-2(3,5)-pyrrolo[2,3-b]pyridina-1(4,1),3(4,3)-dipyrazolacyclooctaphane-35-carbonitrile], the IC50 is less than 50 nM at DYRK1A, more than 100 nM on CLK1 and more than 100 nM at LRRK2 (G2019S). Besides, the “potency against DYRK1A” value at DYRK1A is listed as “most potent”.
For the molecule `COc1c2c(nn1C)CN(C(C)C)C(=O)CCCn1cc(c(C(F)(F)F)n1)-c1c(C)[nH]c3ncc-2cc13` [Compound 51, (Z)-5-isopropyl-35-methoxy-22,31-dimethyl-13-(trifluoromethyl)-11H,21H,31H-5-aza-2(3,5)-pyrrolo[2,3-b]pyridina-1(4,1),3(4,3)-dipyrazolacyclononaphan-6-one], the IC50 against DYRK1B is 533 nM.
Consider `CN1Cc2nn(C)cc2-c2cnc3[nH]cc(c3c2)-c2cn(nc2C(F)(F)F)CCC1=O` [Compound 63, (Z)-31,5-dimethyl-13-(trifluoromethyl)-11H,21H,31H-5-aza-2(3,5)-pyrrolo[2,3-b]pyridina-1(4,1),3(4,3)-dipyrazolacyclooctaphan-6-one], for which the IC50 at DYRK1A is 50 to 100 nM; on CLK1 it was less than 50 nM; at LRRK2 (G2019S) it was 50 to 100 nM.
For the molecule `CN1Cc2nn(C3CCNCC3)cc2-c2cnc3[nH]cc(c3c2)-c2cn(nc2C(F)(F)F)CCCC1=O` [Compound 60, (Z)-5-methyl-31-(piperidin-4-yl)-13-(trifluoromethyl)-11H,21H,31H-5-aza-2(3,5)-pyrrolo[2,3-b]pyridina-1(4,1),3(4,3)-dipyrazolacyclononaphan-6-one], the IC50 at DYRK1A is less than 50 nM; on CLK1, less than 50 nM; on LRRK2 (G2019S), more than 100 nM. For the same molecule, the “potency against DYRK1A” value at DYRK1A is “most potent”.
Regarding `COCCn1nc2c(c1C#N)-c1cnc3[nH]cc(c3c1)-c1cn(nc1C(F)(F)F)CCCC(=O)N(C)C2` [Compound 61, (Z)-31-(2-methoxyethyl)-5-methyl-6-oxo-13-(trifluoromethyl)-11H,21H,31H-5-aza-2(3,5)-pyrrolo[2,3-b]pyridina-1(4,1),3(4,3)-dipyrazolacyclononaphane-35-carbonitrile], the figures for the IC50 at DYRK1A, on CLK1 and at LRRK2 (G2019S) were less than 50 nM, more than 100 nM and more than 100 nM, respectively. The “potency against DYRK1A” value on DYRK1A is “most potent”.
For `CN1CCCCn2cc(c(C(F)(F)F)n2)-c2c[nH]c3ncc(cc23)-c2c(nn(C)c2C#N)C1=O` [Compound 78, (Z)-31,5-dimethyl-4-oxo-13-(trifluoromethyl)-11H,21H,31H-5-aza-2(3,5)-pyrrolo[2,3-b]pyridina-1(4,1),3(4,3)-dipyrazolacyclononaphane-35-carbonitrile], the IC50 at DYRK1A, at CLK1 and at LRRK2 (G2019S) was more than 100 nM each time.
On to `CN1Cc2nn(C3CCNCC3)cc2-c2cnc3[nH]cc(c3c2)-c2cn(nc2C(F)(F)F)CCC1=O` [Compound 65, (Z)-5-methyl-31-(piperidin-4-yl)-13-(trifluoromethyl)-11H,21H,31H-5-aza-2(3,5)-pyrrolo[2,3-b]pyridina-1(4,1),3(4,3)-dipyrazolacyclooctaphan-6-one], for which the IC50 at DYRK1A, on CLK1 and at LRRK2 (G2019S) was more than 100 nM each time.
Turning to `Cc1[nH]c2ncc3cc2c1-c1cn(nc1C(F)(F)F)CCCC(=O)N(C)Cc1nn(C)c(C#N)c1-3` [Compound 52, (Z)-22,31,5-trimethyl-6-oxo-13-(trifluoromethyl)-11H,21H,31H-5-aza-2(3,5)-pyrrolo[2,3-b]pyridina-1(4,1),3(4,3)-dipyrazolacyclononaphane-35-carbonitrile], the IC50 at DYRK1B is 55 nM.
As for `COCCn1cc2c(n1)CN(C)C(=O)CCCn1cc(c(C(F)(F)F)n1)-c1c[nH]c3ncc-2cc13` [Compound 59, (Z)-31-(2-methoxyethyl)-5-methyl-13-(trifluoromethyl)-11H,21H,31H-5-aza-2(3,5)-pyrrolo[2,3-b]pyridina-1(4,1),3(4,3)-dipyrazolacyclononaphan-6-one], the IC50 was less than 50 nM at DYRK1A, less than 50 nM at CLK1 and more than 100 nM at LRRK2 (G2019S). Further, at DYRK1A, the “potency against DYRK1A” value is reported as “most potent”.
